System: Sprague-Dawley rats
Assay: Brain amino acid analyses
Type: in vivo, Rattus norvegicus
Set-up: key to Glutathione, trend over total doses: D: significant dose response (for results, see Table 2); T: significant trend
Description: The right hemisphere of cerebrum was rapidly weighed and homogenized in ice cold 7% HClO4 [35] using a glass/teflon Potter-Elvehjem homogenizer (Schwaben Prazision Nordlingen type L43). α-Amino adipic acid was used as internal standard. Samples were neutralized to pH 6.5–7.5 with ice cold KOH/HCl and centrifuged for 20 min at 20 000 g and 4°C in a Sorvall RMC-14-micro centrifuge. Pellets were frozen at −40°C for later protein determination by the BCA-assay. Supernatants were stored at −40°C, filtered with Nylon-66 micro filters (mesh 0.22 µm; Nalgene) prior to HPLC analysis.
Total amino acids in extracts were analyzed, using a reversed-phase HPLC (ChromSpher 5 C18 column; length 25 cm, inner diameter 4.6 mm; Varian) fitted with a fluorescence detector (Shimadzu, Kyoto, Japan), after derivatization with o-phthaldialdehyde (OPA; Sigma). […] Each sample was eluted for 45 min with a flow rate of 0.4 ml/min. A mixture of the amino acids of interest was run as external standards at 100 µM. L-Amino acid standards for aspartic acid, glutamic acid, serine, glutamine, glycine and alanine] were obtained from Pierce (Rockford, Ill., USA), whereas taurine, γ-amino butyric acid, glutathione and α-amino adipic acid standards were from Sigma-Aldrich. Chromatograms were analyzed using the software Lab Solutions (Shimadzu).

[1] = brain, females, total dose 10 mg/kg bw, n 1
[2] = brain, females, total dose 30 mg/kg bw
[3] = brain, females, total dose 300 mg/kg bw
[4] = brain, females, total dose 1000 mg/kg bw
[5] = brain, males, total dose 10 mg/kg bw
[6] = brain, males, total dose 30 mg/kg bw
[7] = brain, males, total dose 300 mg/kg bw
[8] = brain, males, total dose 1000 mg/kg bw

With Clc1cc(Cl)c(-c2cc(Cl)c(Cl)c(Cl)c2Cl)cc1Cl [PCB 180, 2,2′,3′,4,4′,5,5′-heptachlorobiphenyl] the “Amino acid concentration in cerebrum vs controls” value (both genders, 10, 30, 300 or 1000 mg/kg bw) was “did not show significant differences”, the Alanine [1] was 14.25 nmol/mg protein and the Aspartate [1] was 71.05 nmol/mg protein. It also gave a Glutamate [1] of 124 nmol/mg protein, a Glutamine [1] of 85.95 nmol/mg protein and a Glutathione [1] of 16.96 nmol/mg protein. The Glycine [1] was 43.99 nmol/mg protein, the Serine [1] was 17.81 nmol/mg protein and the Taurine [1] was 113.1 nmol/mg protein. The γ-Amino butyric acid [1] was 42.71 nmol/mg protein, the Alanine [2] was 12.67 nmol/mg protein and the Aspartate [2] was 60.52 nmol/mg protein. The Glutamate [2] was 110 nmol/mg protein, the Glutamine [2] was 82.24 nmol/mg protein and the Glutathione [2] was 12.19 nmol/mg protein. The Glycine [2] was 43.93 nmol/mg protein, the Serine [2] was 17.02 nmol/mg protein and the Taurine [2] was 98.12 nmol/mg protein. It also gave a γ-Amino butyric acid [2] of 40.16 nmol/mg protein, an Alanine [3] of 13.51 nmol/mg protein and an Aspartate [3] of 61.77 nmol/mg protein. The Glutamate [3] was 111 nmol/mg protein, the Glutamine [3] was 87.85 nmol/mg protein and the Glutathione [3] was 11.70 nmol/mg protein. The Glycine [3] was 48.50 nmol/mg protein, the Serine [3] was 17.18 nmol/mg protein and the Taurine [3] was 95.21 nmol/mg protein. The γ-Amino butyric acid [3] was 41.47 nmol/mg protein, the Alanine [4] was 13.04 nmol/mg protein and the Aspartate [4] was 59.40 nmol/mg protein. It also gave a Glutamate [4] of 109 nmol/mg protein, a Glutamine [4] of 79.65 nmol/mg protein and a Glutathione [4] of 10.79 nmol/mg protein. It also gave a Glycine [4] of 43.12 nmol/mg protein, a Serine [4] of 16.71 nmol/mg protein and a Taurine [4] of 97.62 nmol/mg protein. The γ-Amino butyric acid [4] was 40.90 nmol/mg protein, the Alanine [5] was 11.68 nmol/mg protein and the Aspartate [5] was 59.00 nmol/mg protein. For the same compound, the Glutamate [5] was 110 nmol/mg protein, the Glutamine [5] was 81.50 nmol/mg protein and the Glutathione [5] was 12.48 nmol/mg protein. It also gave a Glycine [5] of 38.78 nmol/mg protein, a Serine [5] of 17.39 nmol/mg protein and a Taurine [5] of 93.04 nmol/mg protein. The γ-Amino butyric acid [5] was 36.29 nmol/mg protein, the Alanine [6] was 12.16 nmol/mg protein and the Aspartate [6] was 60.01 nmol/mg protein. For the same compound, the Glutamate [6] was 106 nmol/mg protein, the Glutamine [6] was 68.58 nmol/mg protein and the Glutathione [6] was 11.48 nmol/mg protein. It also gave a Glycine [6] of 38.07 nmol/mg protein, a Serine [6] of 16.11 nmol/mg protein and a Taurine [6] of 93.22 nmol/mg protein. For the same compound, the γ-Amino butyric acid [6] was 36.82 nmol/mg protein, the Alanine [7] was 13.02 nmol/mg protein and the Aspartate [7] was 58.39 nmol/mg protein. For the same compound, the Glutamate [7] was 111 nmol/mg protein, the Glutamine [7] was 76.57 nmol/mg protein and the Glutathione [7] was 10.37 nmol/mg protein. It also gave a Glycine [7] of 39.90 nmol/mg protein, a Serine [7] of 17.20 nmol/mg protein and a Taurine [7] of 95.86 nmol/mg protein. The γ-Amino butyric acid [7] was 36.14 nmol/mg protein, the Alanine [8] was 12.29 nmol/mg protein and the Aspartate [8] was 54.56 nmol/mg protein. It also gave a Glutamate [8] of 103 nmol/mg protein, a Glutamine [8] of 72.52 nmol/mg protein and a Glutathione [8] of 9.97 nmol/mg protein. For the same compound, the Glycine [8] was 40.40 nmol/mg protein, the Serine [8] was 16.45 nmol/mg protein and the Taurine [8] was 88.63 nmol/mg protein. The γ-Amino butyric acid [8] was 35.69 nmol/mg protein, the “Glutathione, trend over total doses” value (brain, males, total doses 0-1000 mg/kg bw) was “T” and the “Cerebrum glutathione concentration, max. decrease” value (males, at 1000 mg/kg) was 18%.

From paper PMC4138103 (PLoS ONE, 2014)
